# From US20130053435A1, “Methods of Treating Alcohol Intoxication, Alcohol Use Disorders and Alcohol Abuse Which Comprises the Administration of Dihydromyricetin” (priority 2011, published 2013)
# Values joined by “and” are separate entries in the source; they are usually repeats but may differ in a detail not shown here. Equal entries are not always repeated. Where two headings read alike, the source gives them in different places.
# How the values were obtained:
# GABAARs [1] = assay: Whole-cell patch-clamp, cultured hippocampal neurons 24 h after EtOH/DHM exposure; format: cell-based, rat; settings: 24 h withdrawal
# Procedure: (§1) Control neurons were treated with corresponding vehicle as same procedure as EtOH-treated neurons. The concentration of 60 mM EtOH was selected in view of prior experiments. See Liang J et al (2007). Specifically, the concentration of 60 mM EtOH used to treat cultured neurons was chosen to match blood levels measured in adult rats after intoxication with gavage of 5 g/kg, which produced about 60 mM blood peak plasma [EtOH] lasting for about 2 to 3 hr and induced significant plasticity in GABAARs and tolerance.
# (§2) Then, immediately before electrophysiological recording, cells grown on coverslips were transferred to a perfusion chamber (Warner Instruments) and visualized with an inverted microscope (TE200, Nikon). Whole-cell patch-clamp recordings were obtained from cultured neurons under voltage-clamp mode at room temperature (22-25° C.), at a holding potential of −70 mV. Cells were perfused with an extracellular solution (137 mM NaCl, 5 mM KCl, 2 mM CaCl2, 1 mM MgCl2, 20 mM glucose and 10 mM HEPES (310-320 Osm, pH adjusted to 7.40 with NaOH)). Glass pipettes were filled with the same internal solution as that in slice recordings, with an input resistance of 4-7 MΩ. GABAAR-mediated mIPSCs were recorded using the same pharmacological method as mentioned above. […] Electrical signals were amplified using a Multiclamp 200 B amplifier (Molecular Devices, USA). After establishing the whole-cell configuration, at least 10 min were allowed to elapse before the application of drug to allow the membrane patch to stabilize and exchange of ions between the recording electrode and the cytosol to occur. Data were acquired with pClamp software (Version 10.0, Molecular Devices, USA), digitized at 20 kHz (Digidata 1440A, Molecular Devices), and analyzed using the Clampfit software (Version 10.0, Molecular Devices) and the Mini Analysis Program (versions 6.0.7, Synaptosoft, Decatur, Ga.) using methods known in the art. See Hamann M, et al. (2002) Neuron 33(4):625-633; Stell B M and Mody I (2002) J Neurosci 22(10): RC223; and Liang (2007).
# [2] = system: EtOH withdrawal-induced tolerance in rats; assay: EtOH withdrawal-induced tolerance measured by acute EtOH-induced LORR; format: in vivo, rat; settings: for LORR duration after 48 hr withdrawal: test EtOH 3 g/kg i.p.; for acute EtOH-induced LORR after 48 hr withdrawal: FIG. 12B
# Procedure: See Kakihana R, et al. (1966) Science 154(756):1574-1575). […] LORR duration ended when the animal was able to flip over three times in 30 s. LORR assays were blindly performed. LORR durations were reported as mean (min)±SEM.
# After a 48 hr withdrawal period, EtOH-induced LORR assays (EtOH, 3 g/kg, i.p.) were performed.
# 48 hr after injection, rats were sub-divided into 3 groups to measure signs of EtOH withdrawal.
# Tolerance to EtOH was measured with acute EtOH-induced LORR (in minutes, FIG. 12B). EtOH induced 63.6±7.0 LORR in the vehicle group subjects as compared to 10.8±3.8 LORR in EtOH group subjects.
# GABAARs [3] = system: T1, GABAARs; assay: Whole-cell patch-clamp, cultured hippocampal neurons, acute drug application; format: cell-based, rat
# T1 construct: DHM-enhanced Itonic; EC50 on GABAAR-mediated Itonic; other: control (vehicle) cultured neurons, DIV14; other: cultured neurons with EtOH exposure/withdrawal (60 mM, 30 min, 24 hr); EtOH-potentiated Itonic; GABAAR-mediated Ito
# Procedure: (§3) Hippocampal neurons from embryonic day 18 rats were prepared by papain dissociation (Worthington Biochemical, Lakewood, N.J.) and cultured in neurobasal medium and B27 supplement (Invitrogen). Cultures were kept at 37° C. in a 5% CO2 humidified incubator as described previously. See Shen, Y., et al. (2011) Mol Pharmacol 79:432-442.
# (§4) Hippocampal neurons from embryonic day 18 SD rats were prepared by papain dissociation (Worthington Biochemical, Lakewood, N.J.) and cultured in neurobasal medium (Invitrogen) and B27 supplement as previously reported. See Stowell J N and Craig A M (1999) Neuron 22(3):525-536. Briefly, embryos were removed from maternal rats anesthetized with isoflurane and euthanized by decapitation. Hippocampus were dissected and placed in Ca^2+- and Mg^2+-free HEPES-buffered Hank's buffered salt solution (pH 7.45). Tissues were dissociated by papain digestion followed by trituration through a Pasteur pipette and papain inhibitor treatment. Cells were pelleted and resuspended in neurobasal medium containing 2% B27 serum-free supplement, 100 U/ml penicillin, 100 μg/ml streptomycin, 0.5 mM glutamine (all from Invitrogen), and 10 μM glutamate (Sigma).
# (§5) Dissociated neurons were then plated at a density of 0.3×10^5 cells/cm^2 onto 12 mm round coverslips in 24-well plates (for patch-clamp recording) and/or at a density of 0.5×10^5 cells/cm^2 in 6-well plates (for Western blot and biotinylation assays) coated with poly-D-lysine (Sigma, 50 μg/ml). Cultures were kept at 37° C. in a 5% CO2 humidified incubator. Thereafter, one third to half of the medium was replaced twice a week with neurobasal culture medium containing 2% B27 supplement, and 0.5 mM glutamine.
# as §1, §2
# GABAARs [4] = system: T2, GABAARs; assay: as above; format: cell-based, rat
# T2 construct: DHM-enhanced mIPSCs; other: control (vehicle) cultured neurons, DIV14; other: cultured neurons with EtOH exposure/withdrawal (60 mM, 30 min, 24 hr); EtOH-potentiated mIPSCs; effect on post-synaptic currents (mIPSCs); other: comparative experiments, rat hippocampal slices
# Procedure: as §3, §4, §5, §1, §2
# GABAARs [5] = system: T3, GABAARs; assay: as above; format: cell-based, rat; settings: DHM 0.3 and 1 μM co-applied with GABA (b110 prints 1 M)
# T3 construct: other: in the presence of 60 mM EtOH, rat hippocampal; shift of the GABA concentration-response curve
# Procedure: as §3, §4, §5, §1, §2
# [6] = neurons treated with EtOH 60 mM + DHM
smiles,measurement,setting,value
"O=C1c2c(O)cc(O)cc2O[C@H](c2cc(O)c(O)c(O)c2)[C@H]1O [DHM, (2R,3R)-3,5,7-trihydroxy-2-(3,4,5-trihydroxyphenyl)-2,3-dihydrochromen-4-one]",GABAAR function after exposure/withdrawal,GABAARs [1]; DHM alone exposure,did not alter GABAAR function
same,Itonic magnitude after acute EtOH (60 mM),GABAARs [1]; [6],25.2±1.2 pA
same,averaged Itonic magnitude,GABAARs [1]; [6],11.2±0.6 pA
same,mIPSC potentiation by EtOH,GABAARs [1]; [6],8.3±9.4%
same,LORR duration after 48 hr withdrawal,[2]; DHM 1 mg/kg i.p. alone,61 ± 4 min
same,acute EtOH-induced LORR after 48 hr withdrawal,[2]; DHM group,65.6 ± 8.4 min
same,acute EtOH-induced LORR after 48 hr withdrawal,[2]; EtOH+DHM (1 mg/kg) group,61.0 ± 3.8 min
same,LORR duration after 48 hr withdrawal,[2]; i.p. EtOH 3 g/kg + DHM 1 mg/kg 30 min after EtOH,61 ± 4 min
same,Itonic,"GABAARs [3]; 0.3 μM DHM, cultured hippocampal neurons",21.0±2.3 pA
same,Itonic,"GABAARs [3]; 1 μM DHM, cultured hippocampal neurons DIV13-14",194.9±13.6 % of control
same,EC50,"GABAARs [3]; control (vehicle) cultured neurons, DIV14, read-out: EC50 on GABAAR-mediated Itonic",~200 nM
same,EC50,"GABAARs [3]; cultured neurons with EtOH exposure/withdrawal (60 mM, 30 min, 24 hr), read-out: EC50 on Itonic",~200 nM and ~300 nM
same,mIPSCs (area),"GABAARs [4]; 1 μM DHM, cultured hippocampal neurons",181.8±9.2 % of control and 128.2±8.3 % of control
same,EC50,"GABAARs [4]; control (vehicle) cultured neurons, DIV14, read-out: EC50 on mIPSCs",~200 nM and ~300 nM
same,shift of the GABA concentration-response curve,GABAARs [5],left shift
